Experimental findings from US20220193021A1 (priority 2019, published 2022) are described below.

Where a name gives a salt, the structure may show the parent alone.

Common to all, as to assay type: cell-based
The subject of experiment [1] is serine proteases (TMPRSS4, TMPRSS11D, TMPRSS2, and DESC1). The experiment in a line: Protein levels of serine proteases in human lung airway chips. The following applies: 10 μM versus vehicle. The source says: Protein levels of chips treated with nafamostat mesylate are relative to chips not treated with nafamostat mesylate.
In experiment [2] the test system is influenza virus protein hemagglutinin 0 (HA0).
The subject of experiment [3] is serine proteases (TMPRSS4, TMPRSS11D, TMPRSS2, and DESC1). The experiment in a line: mRNA levels of serine proteases in human lung airway chips. The following applies: 10 μM versus vehicle.
The next experiment has as its system influenza virus.

As to `N=C(N)c1ccc2cc(OC(=O)c3ccc(N=C(N)N)cc3)ccc2c1` [nafamostat mesylate], the “effect on protein expression of serine proteases” value in experiment [1] was “no effect”. Besides, in experiment [2], the “effect on the cleavage of HA0” value is reported as “efficiently block”. The “effect on mRNA expression of serine proteases” value in experiment [3] was “no effect”.

With `CCOC(=O)C1=C[C@@H](OC(CC)CC)[C@H](NC(C)=O)[C@@H](N)C1` [oseltamivir], the therapeutic window entry with influenza virus is “approximately 48 hours”.
